Results taken from the NIST ThermoML archive (doi:10.1016/j.jct.2013.05.046).

Columns and labels:
[1] = xn = mol fraction of the nth substance listed; settings: 101 kPa, Liquid, Cone and plate viscometry, x2 = 0.8
[2] = refractive index (Na D-line) (dimensionless); xn = mol fraction of the nth substance listed; settings: 101 kPa, Liquid, Standard Abbe refractometry, x2 = 0.8

CC[P+](c1ccccc1)(c1ccccc1)c1ccccc1.[I-] [ethyltriphenylphosphonium iodide] + O=S1(=O)CCCC1
Settings | refractive index, 298.15 K | refractive index, 303.15 K | refractive index, 313.15 K | refractive index, 323.15 K | refractive index, 333.15 K | viscosity, 298.15 K [mPa·s] | viscosity, 308.15 K [mPa·s] | viscosity, 318.15 K [mPa·s] | viscosity, 328.15 K [mPa·s] | viscosity, 338.15 K [mPa·s]
[1] | – | – | – | – | – | 95.03 | 52.14 | 24.15 | 15.24 | 9.578
[2] | 1.516 | 1.5142 | 1.5104 | 1.5069 | 1.5033 | – | – | – | – | –
